Experimental data reported in US11760754B2, “Heterocyclic mitochondrial activity inhibitors and uses thereof” (UNIVERSITÉ DE MONTRÉAL, priority 2017, dated 2023).
Like-named read-outs stand apart in the source and are kept apart here.

How the values were obtained:
OCI-AML3 cells = test: OCI-AML3 cell growth inhibition, dose-response viability assay (CellTiterGlo); format: cell-based; settings: Homo sapiens, OCI-AML-3, 144 h, read-out: AML-3 EC50
Outline: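 OCI-AML3 cells seeded, then exposed to compound in serial dilutions from 10 μM to 0.5 nM, in duplicate or quadruplicate. Viability read by CellTiter-Glo.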

MLL-AF9 cells = test: MLL-AF9 leukemia cell growth inhibition, dose-response viability assay (CellTiterGlo); format: cell-based, murine; settings: Mus musculus, MLL-AF9, 120 h, read-out: MLL-AF9 EC50
Outline: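 Murine MLL-AF9 leukemia cells (female, MSCV MLL-AF9 IRES Puro transduced) were treated with serial compound dilutions from 10 μM to 0.5 nM in duplicates or quadruplicates. Viability read by CellTiterGlo dose-response.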

| EC50 (OCI-AML3 cells) | EC50 (MLL-AF9 cells) | Compound | EC50 (OCI-AML3 cells; OCI-AML3 cells, 6 days of culture, CellTiterGlo) |
| --- | --- | --- | --- |
| 0.1 to 0.5 µM | < 0.05 µM | Fc1ccc2[nH]c(-c3nc(COc4ccc(CCCCn5ccnn5)cc4)co3)cc2c1 [Compound 73] | – |
| < 0.05 µM | 0.05 to 0.1 µM | Fc1cc(C(F)(F)F)ccc1/C=C/c1nc(COc2ccc(CCCCc3cccnn3)cc2)co1 [Compound 138, (E)-2-(2-fluoro-4-(trifluoromethyl)styryl)-4-((4-(4-(pyridazin-3-yl)butyl)phenoxy)methyl)oxazole] | – |
| 0.1 to 0.5 µM | 0.1 to 0.5 µM | Fc1ccccc1/C=C/c1nc(COc2ccc(CCCCn3ccnn3)cc2)co1 [Compound 41, (E)-4-((4-(4-(1H-1,2,3-triazol-1-yl)butyl)phenoxy)methyl)-2-(2-fluorostyryl)oxazole] | – |
| 0.1 to 0.5 µM | 0.1 to 0.5 µM | CS(=O)(=O)c1ccc(/C=C/c2nc(COc3ccc(CCCCn4ccnn4)cc3)co2)c(F)c1 [Compound 123, (E)-4-((4-(4-(1H-1,2,3-triazol-1-yl)butyl)phenoxy)methyl)-2-(2-fluoro-4-(methylsulfonyl)styryl)oxazole] | – |
| 0.5 to 1 µM | 0.1 to 0.5 µM | Fc1ccc2cc(-c3nc(COc4ccc(CCCCn5ccnn5)cc4)co3)oc2c1 [Compound 142, 4-((4-(4-(1H-1,2,3-triazol-1-yl)butyl)phenoxy)methyl)-2-(6-fluorobenzofuran-2-yl)oxazole] | – |
| 1 to 10 µM | 0.5 to 1 µM | O=[N+]([O-])c1ccc(/C=C/c2nc(COc3ccc(C(O)CCCn4ccnn4)cc3)co2)c(F)c1 (centres unmarked) [Compound 25, (E)-1-(4-((2-(2-fluoro-4-nitrostyryl)oxazol-4-yl)methoxy)phenyl)-4-(1H-1,2,3-triazol-1-yl)butan-1-ol] | – |
| 0.1 to 0.5 µM | 0.1 to 0.5 µM | OC(CCCn1ccnn1)c1ccc(OCc2coc(/C=C/c3ccc(OC(F)(F)F)cc3)n2)cc1 (centres unmarked) [Compound 19, (E)-4-(1H-1,2,3-triazol-1-yl)-1-(4-((2-(4-(trifluoromethoxy)styryl)oxazol-4-yl)methoxy)phenyl)butan-1-ol] | – |
| 1 to 10 µM | 0.5 to 1 µM | OCc1nnn(CCCCc2ccc(OCc3coc(/C=C/c4ccc(C(F)(F)F)cc4)n3)cc2)c1CO [Compound 9, (E)-(1-(4-(4-((2-(4-(trifluoromethyl)styryl)oxazol-4-yl)methoxy)phenyl)butyl)-1H-1,2,3-triazole-4,5-diyl)dimethanol] | – |
| 1 to 10 µM | 0.1 to 0.5 µM | C/C(=C\c1nc(COc2ccc(CCCCn3ccnn3)cc2)co1)c1ccc(C(F)(F)F)cc1 [Compound 74, (E)-4-((4-(4-(1H-1,2,3-triazol-1-yl)butyl)phenoxy)methyl)-2-(2-(4-(trifluoromethyl)phenyl)prop-1-en-1-yl)oxazole] | – |
| 1 to 10 µM | 1 to 10 µM | FC(F)(F)c1cccc(/C=C/c2nc(COc3ccc(CCCCn4ccnn4)cc3)co2)c1 [Compound 49, (E)-4-((4-(4-(1H-1,2,3-triazol-1-yl)butyl)phenoxy)methyl)-2-(3-(trifluoromethyl)styryl)oxazole] | – |
| 0.05 to 0.1 µM | 0.05 to 0.1 µM | Fc1cc(Cl)ccc1/C=C/c1nc(COc2ccc(CCCCn3ccnn3)cc2)co1 [Compound 116, (E)-4-((4-(4-(1H-1,2,3-triazol-1-yl)butyl)phenoxy)methyl)-2-(4-chloro-2-fluorostyryl)oxazole] | – |
| 1 to 10 µM | 1 to 10 µM | Nc1ccc(/C=C/c2nc(COc3ccc(CCCCn4ccnn4)cc3)co2)c(F)c1 [Compound 66, (E)-4-(2-(4-((4-(4-(1H-1,2,3-triazol-1-yl)butyl)phenoxy)methyl)oxazol-2-yl)vinyl)-3-fluoroaniline] | – |
| 0.1 to 0.5 µM | 0.1 to 0.5 µM | Fc1ccc(/C=C/c2nc(COc3ccc(CCCCn4ccnn4)cc3)co2)cc1 [Compound 39, (E)-4-((4-(4-(1H-1,2,3-triazol-1-yl)butyl)phenoxy)methyl)-2-(4-fluorostyryl)oxazole] | – |
| 1 to 10 µM | 1 to 10 µM | CCOC(=O)c1nnn(CCCCc2ccc(OCc3coc(/C=C/c4ccc(C(F)(F)F)cc4)n3)cc2)c1C(=O)OCC [Compound 6, (E)-diethyl 1-(4-(4-((2-(4-(trifluoromethyl)styryl)oxazol-4-yl)methoxy)phenyl)butyl)-1H-1,2,3-triazole-4,5-dicarboxylate] | – |
| 1 to 10 µM | 1 to 10 µM | O=[N+]([O-])c1ccc(/C=C/c2nc(COc3ccc(CCCCn4ccnn4)cc3)co2)c(Oc2ccc(CCCCn3ccnn3)cc2)c1 [Compound 101, (E)-2-(2-(4-(4-(1H-1,2,3-triazol-1-yl)butyl)phenoxy)-4-nitrostyryl)-4-((4-(4-(1H-1,2,3-triazol-1-yl)butyl)phenoxy)methyl)oxazole] | – |
| 0.05 to 0.1 µM | 0.1 to 0.5 µM | Fc1ccc(/C=C/c2nc(COc3ccc(CCCCn4ccnn4)cc3)co2)c(F)c1 [Compound 45, (E)-4-((4-(4-(1H-1,2,3-triazol-1-yl)butyl)phenoxy)methyl)-2-(2,4-difluorostyryl)oxazole] | – |
| 0.5 to 1 µM | 1 to 10 µM | Fc1cccc(F)c1/C=C/c1nc(COc2ccc(CCCCn3ccnn3)cc2)co1 [Compound 46, (E)-4-((4-(4-(1H-1,2,3-triazol-1-yl)butyl)phenoxy)methyl)-2-(2,6-difluorostyryl)oxazole] | – |
| 0.5 to 1 µM | 0.1 to 0.5 µM | Cc1cn(CCCCc2ccc(OCc3coc(/C=C/c4ccc(C(F)(F)F)cc4F)n3)cc2)nn1 [Compound 92, (E)-2-(2-fluoro-4-(trifluoromethyl)styryl)-4-((4-(4-(4-methyl-1H-1,2,3-triazol-1-yl)butyl)phenoxy)methyl) oxazole] | – |
| < 0.05 µM | < 0.05 µM | Fc1cc(C(F)(F)F)ccc1/C=C/c1nc(COc2ccc(SCCn3ccnn3)cc2)co1 [Compound 147, (E)-4-((4-((2-(1H-1,2,3-triazol-1-yl)ethyl)thio)phenoxy)methyl)-2-(2-fluoro-4-(trifluoromethyl)styryl)oxazole] | – |
| 0.5 to 1 µM | 0.1 to 0.5 µM | O=C(CCCn1ccnn1)c1ccc(OCc2coc(/C=C/c3ccc(Br)cc3F)n2)cc1 [Compound 20, (E)-1-(4-((2-(4-bromo-2-fluorostyryl)oxazol-4-yl)methoxy)phenyl)-4-(1H-1,2,3-triazol-1-yl)butan-1-one] | – |
| 1 to 10 µM | 0.5 to 1 µM | O=C(OCCCCc1ccc(OCc2coc(/C=C/c3ccc(C(F)(F)F)cc3)n2)cc1)N1CCOCC1 [Compound 35, (E)-4-(4-((2-(4-(trifluoromethyl)styryl)oxazol-4-yl)methoxy)phenyl)butyl morpholine-4-carboxylate] | – |
| 1 to 10 µM | > 10 µM | O=[N+]([O-])c1cc(F)cc2cc(-c3nc(COc4ccc(CCCCn5ccnn5)cc4)co3)[nH]c12 [Compound 126, 4-((4-(4-(1H-1,2,3-triazol-1-yl)butyl)phenoxy)methyl)-2-(5-fluoro-7-nitro-1H-indol-2-yl)oxazole] | – |
| 1 to 10 µM | 1 to 10 µM | FC(F)(F)c1ccc(/C=C/c2nc(COc3ccc(CCCCn4cncn4)cc3)co2)c(Oc2ccc(CCCCn3cncn3)cc2)c1 [Compound 89, (E)-2-(2-(4-(4-(1H-1,2,4-triazol-1-yl)butyl)phenoxy)-4-(trifluoromethyl)styryl)-4-((4-(4-(1H-1,2,4-triazol-1-yl)butyl)phenoxy)methyl)oxazole] | – |
| 1 to 10 µM | 1 to 10 µM | CC(C)(C)OC(=O)NCCCCc1ccc(OCc2coc(/C=C/c3ccc(C(F)(F)F)cc3)n2)cc1 [Compound 79, (E)-tert-butyl (4-(4-((2-(4-(trifluoromethyl)styryl)oxazol-4-yl)methoxy)phenyl)butyl) carbamate] | – |
| 0.1 to 0.5 µM | 0.1 to 0.5 µM | Fc1cc(C(F)(F)F)ccc1/C=C/c1nc(COc2ccc(CCCCc3cccnc3)cc2)co1 [Compound 102, (E)-2-(2-fluoro-4-(trifluoromethyl)styryl)-4-((4-(4-(pyridin-3-yl)butyl)phenoxy)methyl)oxazole] | – |
| < 0.05 µM | < 0.05 µM | Fc1cc(C(F)(F)F)ccc1/C=C/c1nc(COc2ccc(SCCCn3ccnn3)cc2)co1 [Compound 130, (E)-4-((4-((3-(1H-1,2,3-triazol-1-yl)propyl)thio)phenoxy)methyl)-2-(2-fluoro-4-(trifluoromethyl)styryl)oxazole] | – |
| 1 to 10 µM | 0.1 to 0.5 µM | O=C(Nc1ccc(CCCCO)cc1)c1coc(/C=C/c2ccc(C(F)(F)F)cc2)n1 [Compound 29, (E)-N-(4-(4-hydroxybutyl)phenyl)-2-(4-(trifluoromethyl)styryl)oxazole-4-carboxamide] | – |
| < 0.05 µM | < 0.05 µM | Fc1ccc2cc(-c3nc(COc4ccc(CCCCn5ccnn5)cc4)co3)[nH]c2c1 [Compound 127, 4-((4-(4-(H-1,2,3-triazol-1-yl)butyl)phenoxy)methyl)-2-(6-fluoro-1H-indol-2-yl)oxazole] | – |
| 1 to 10 µM | 0.1 to 0.5 µM | Fc1cc(C(F)(F)F)ccc1/C=C/c1nc(CSc2ccc(CCCCn3ccnn3)cc2)co1 [Compound 146, (E)-4-(((4-(4-(1H-1,2,3-triazol-1-yl)butyl)phenyl)thio)methyl)-2-(2-fluoro-4-(trifluoromethyl)styryl)oxazole] | – |
| 0.1 to 0.5 µM | < 0.05 µM | O=S1(=O)CCN(Cc2cn(CCCCc3ccc(OCc4coc(/C=C/c5ccc(C(F)(F)F)cc5)n4)cc3)nn2)CC1 [Compound 10, (E)-4-((1-(4-(4-((2-(4-(trifluoromethyl)styryl)oxazol-4-yl)methoxy)phenyl)butyl)-1H-1,2,3-triazol-4-yl)methyl)thiomorpholine 1,1-dioxide] | – |

| Compound | EC50 (OCI-AML3 cells) | EC50 (MLL-AF9 cells) | EC50 (OCI-AML3 cells; OCI-AML3 cells, 6 days of culture, CellTiterGlo) |
| --- | --- | --- | --- |
| C[Si](C)(C)c1cn(CCCCc2ccc(OCc3coc(/C=C/c4ccc(Br)cc4F)n3)cc2)nn1 [Compound 3B, (E)-2-(4-Bromo-2-fluorostyryl)-4-((4-(4-(4-(trimethylsilyl)-1H-1,2,3-triazol-1-yl)butyl)phenoxy)methyl)oxazole] | – | 0.1 to 0.5 µM | 0.5 to 1 µM |
